Tests used:
[1] = biological target: T1, Axl (Homo sapiens, UniProt P30530); assay: HTRF KinEASE-TK biochemical potency, AXL; design: purchased Invitrogen; conditions: 5 nM AXL, 700 μM ATP
T1 sequence (P30530 26-894): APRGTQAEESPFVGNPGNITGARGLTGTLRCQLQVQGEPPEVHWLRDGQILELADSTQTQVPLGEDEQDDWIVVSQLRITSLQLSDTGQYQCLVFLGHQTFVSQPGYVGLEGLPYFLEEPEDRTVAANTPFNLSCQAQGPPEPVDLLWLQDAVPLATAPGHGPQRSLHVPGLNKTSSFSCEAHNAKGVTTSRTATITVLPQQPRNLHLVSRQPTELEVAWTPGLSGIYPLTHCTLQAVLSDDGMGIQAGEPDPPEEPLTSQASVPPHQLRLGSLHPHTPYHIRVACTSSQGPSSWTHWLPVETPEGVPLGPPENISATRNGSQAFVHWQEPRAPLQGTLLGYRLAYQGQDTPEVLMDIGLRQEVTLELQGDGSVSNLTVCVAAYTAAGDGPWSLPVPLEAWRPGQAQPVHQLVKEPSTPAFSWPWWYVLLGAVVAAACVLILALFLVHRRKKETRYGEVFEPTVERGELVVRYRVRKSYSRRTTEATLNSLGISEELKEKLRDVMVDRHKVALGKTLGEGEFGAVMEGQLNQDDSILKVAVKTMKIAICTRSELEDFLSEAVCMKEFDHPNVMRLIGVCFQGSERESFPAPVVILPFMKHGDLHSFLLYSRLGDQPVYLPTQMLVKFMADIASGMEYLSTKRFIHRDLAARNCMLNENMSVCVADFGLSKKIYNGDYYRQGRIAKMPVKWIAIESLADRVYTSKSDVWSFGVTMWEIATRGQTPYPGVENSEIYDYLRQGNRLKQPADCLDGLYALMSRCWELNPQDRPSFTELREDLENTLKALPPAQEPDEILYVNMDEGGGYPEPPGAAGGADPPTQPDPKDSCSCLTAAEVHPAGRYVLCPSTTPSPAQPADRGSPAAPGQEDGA
Method: (§1) Purified recombinant human AXL, TYRO3 and MER proteins were purchased from Invitrogen™. 10 nM AXL, 2 nM TYRO3 or MER were incubated with varying concentrations of compounds in 50 mM HEPES, pH 7.4, 10 mM MgCl2, 0.01% BSA, 1 mM DTT and 2% DMSO in a total volume of 20 μl in a 384-well microplate (Corning™ #3640) at RT for 1 h. The AXL, TYRO3 and MER enzymatic reaction was initiated by transferring 10 μl of enzyme and compound mixture into 10 μl of 1.6 μM TK Substrate-biotin (HTRF® KinEASE-TK kit, Cisbio) and 1400 μM ATP pre-incubated in 50 mM HEPES, pH 7.4, 10 mM MgCl2, 0.01% BSA, 1 mM DTT in a 384-well microplate (Corning™ #3640) at RT, giving the final reaction conditions: 5 nM AXL, 1 nM TYRO3 or MER, 800 nM TK Substrate-biotin and 700 μM ATP in 50 mM HEPES, pH 7.4, 10 mM MgCl2, 0.01% BSA, 1 mM DTT and 1% DMSO with varying concentrations of compounds. Following 2 h incubation at RT, the AXL, TYRO3 and MER enzymatic reaction was stopped by transfer of 10 μl of reaction into 10 μl of detection mix (400 nM Streptavidin-XL665, 200-fold dilution TK Antibody-Cryptate and detection buffer, HTRF® KinEASE-TK kit, Cisbio) in a white 384-well microplate (Perkin Elmer, OptiPlate 384). After 1 h incubation at RT, the plate was put into a plate reader (Evision) to read at 665/620 nm (acceptor/donor) for HTRF. The value of the DMSO blank (MIN inhibition=100% activity) was used as a negative control. The positive control was established by adding 5 μl of enzyme and DMSO mixture into 10 μl of detection mix followed by addition of 5 μl of TK Substrate-biotin and ATP mixture (MAX inhibition=0% activity). To calculate the percent activity, Equation 1 was used. Ratio665/620 is the value at a given compound concentration: […]

[2] = biological target: T1, Axl; assay: Axl NanoBRET intracellular kinase assay (Cell Binding); design: host or cells: HEK-293; conditions: HEK-293 cells transfected with Axl-NanoLuc fusion vector; displacement of K-5 NanoBRET tracer
Method: Axl NanoBRET™ intracellular kinase assay (Promega, N2540) was performed according to manufacturer's recommendation. In brief, HEK-293 cells are transiently transfected with Axl-NanoLuc fusion vector (Promega, NV1071), utilizing Fugene HD transfection reagent (Promega, E2311) a day before experiment following manufacturer's recommendation.
The day of the assay, the cells were collected and resuspended in Opti-MEM media (ThermoFisher, 31985070) at 2e5 cells/mL concentration. Testing compounds were serial diluted and dispensed into a white 384 well polystyrene plate at 200 nL in 100% DMSO. 40 μL of resuspended cells is then added per well for a final condition of 8K cells/well with 0.5% DMSO. After one-hour compound pre-incubation at 37° C. and 5% CO2, cells were further incubated with 0.35 μM K-5 NanoBRET tracer for two-hours at 37° C. and 5% CO2. […] of 3× substrate plus Inhibitor solution was prepared according to kits manual and added to the cells followed by a 30 second pulse centrifugation spin. The plate was then immediately read utilizing an Envision (Perkin Elmer) plate reader. The BRET signal is measured by taking the ratio of the emissions reading at 610 nm and 450 nm. Compound binding is based on the decrease BRET signal caused by the displacement of the K-5 tracer. […] IC50 value of compounds was determined by 4-parameter non-linear regression fitting of percent activity in GraphPad Prism software.

[3] = biological target: T2, recombinant human TYRO3 (Homo sapiens, UniProt Q06418); assay: HTRF KinEASE-TK biochemical potency, TYRO3; conditions: 1 nM TYRO3, 700 μM ATP
T2 construct: purchased Invitrogen
T2 sequence (Q06418 41-890): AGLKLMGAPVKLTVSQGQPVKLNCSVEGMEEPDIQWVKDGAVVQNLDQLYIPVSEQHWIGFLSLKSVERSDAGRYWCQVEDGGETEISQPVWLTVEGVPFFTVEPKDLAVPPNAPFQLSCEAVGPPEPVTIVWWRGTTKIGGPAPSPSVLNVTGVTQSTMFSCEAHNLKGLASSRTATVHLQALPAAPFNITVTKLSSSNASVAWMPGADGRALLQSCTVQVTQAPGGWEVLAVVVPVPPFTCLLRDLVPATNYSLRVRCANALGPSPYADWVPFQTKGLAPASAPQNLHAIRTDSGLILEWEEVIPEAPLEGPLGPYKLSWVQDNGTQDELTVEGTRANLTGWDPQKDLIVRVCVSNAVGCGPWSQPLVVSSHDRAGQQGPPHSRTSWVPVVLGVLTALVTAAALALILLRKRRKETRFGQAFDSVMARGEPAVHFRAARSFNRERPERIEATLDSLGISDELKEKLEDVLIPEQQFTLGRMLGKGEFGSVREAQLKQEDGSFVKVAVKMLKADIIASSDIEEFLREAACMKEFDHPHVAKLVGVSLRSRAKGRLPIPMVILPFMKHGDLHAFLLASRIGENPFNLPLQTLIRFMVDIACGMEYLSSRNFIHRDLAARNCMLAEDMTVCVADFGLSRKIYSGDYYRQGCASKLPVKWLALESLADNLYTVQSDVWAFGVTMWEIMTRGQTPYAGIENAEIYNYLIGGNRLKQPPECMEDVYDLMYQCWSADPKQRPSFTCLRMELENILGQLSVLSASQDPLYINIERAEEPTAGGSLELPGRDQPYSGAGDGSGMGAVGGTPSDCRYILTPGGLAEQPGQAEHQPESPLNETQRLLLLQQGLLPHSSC
Method: as §1

IC50 [1]	IC50 [2]	IC50 [3]	SMILES
100 to 1000 nM	> 1000 nM	–	O=C1NCCOc2cc(-c3n[nH]c4ncc(-c5cc(Cl)c6c(c5)CCN(C5CCCC5)C6)cc34)ccc21 [Example 8, 8-[5-(8-Chloro-2-cyclopentyl-1,2,3,4-tetrahydroisoquinolin-6-yl)-1H-pyrazolo[3,4-b]pyridin-3-yl]-2,3,4,5-tetrahydro-1,4-benzoxazepin-5-one]
> 1000 nM	> 1000 nM	–	FC1(F)Oc2ccc(-c3n[nH]c4ncc(-c5ccc6c(c5)CCN(C5CCCC5)CC6)cc34)cc2O1 [Example 14, 3-Cyclopentyl-7-(3-(2,2-difluorobenzo[d][1,3]dioxol-5-yl)-1H-pyrazolo[3,4-b]pyridin-5-yl)-2,3,4,5-tetrahydro-1H-benzo[d]azepine]
< 100 nM	> 1000 nM	< 100 nM	CS(=O)(=O)N1CCc2ccc(-c3cnc4[nH]nc(-c5ccc6c(c5)OCCNC6=O)c4c3)cc2CC1 [Example 18, 8-[5-(3-Methanesulfonyl-2,3,4,5-tetrahydro-1H-3-benzazepin-7-yl)-1H-pyrazolo[3,4-b]pyridin-3-yl]-2,3,4,5-tetrahydro-1,4-benzoxazepin-5-one]
